# Patent US20100197650A1, “COMPOSITIONS AND METHODS OF TREATMENT COMPRISING CEFTAROLINE” (FOREST LABORATORIES HOLDINGS LTD., priority 2008, published 2010)
# “And” between values parts separate entries of the source, which are not always exact repeats. Equal values may be shown once. Read-outs that look alike come from different tables or passages of the source.
# Assays:
# Staphylococcus aureus = experiment: MIC, broth microdilution (Example 1); assay type: cell-based
# Description: (§1) Stock solutions of all antibacterial agents were prepared at 80-fold (80×) the final target concentration in the appropriate solvent and the solution was allowed to stand for 60 minutes. All antibacterial agents were in solution under these conditions. The final drug concentrations in the FIC assay plates were set to bracket the MIC value of each agent for each test organism, unless the strain was totally resistant to the test agent.
# (§2) The test organisms were originally received from clinical sources, or from the American Type Culture Collection. Upon receipt, the isolates were streaked onto the appropriate growth medium: Chocolate Agar for H. influenzae, Tryptic Soy Agar II (Becton Dickinson, Sparks, Md.) supplemented with 5% defibrinated sheep blood for streptococci, and unsupplemented Tryptic Soy Agar II for all other organisms. Colonies were harvested from these plates and a cell suspension was prepared in Tryptic Soy Broth (Becton Dickinson) containing cryoprotectant. Aliquots were then frozen at −80° C. On the day prior to assay, the frozen seeds of the organisms to be tested in that session were thawed and streaked for isolation onto the appropriate agar medium plates and incubated overnight at 35° C.
# (§3) The test medium for H. influenzae was Haemophilus Test Medium. Streptococci were tested in Mueller Hinton II Broth (Becton Dickinson; Lot 6235472) supplemented with 2% lysed horse blood (Cleveland Scientific, Bath, Ohio; Lot H88621). All other organisms were tested in Mueller Hinton II Broth (Becton Dickinson, Lot 6235472). The broth was prepared at 1.05× normal weight/volume to offset the 5% volume of the drugs in the final test plates.
# (§4) In order to select the proper test concentrations for each drug combination, minimal inhibitory concentration (MIC) values were first determined using the broth microdilution method previously described (Clinical and Laboratory Standards Institute. Methods for Dilution Antimicrobial Susceptibility Tests for Bacteria That Grow Aerobically; Approved Standard—Seventh Edition. Clinical and Laboratory Standards Institute document M7-A7 [ISBN 1-56238-587-9]. Clinical and Laboratory Standards Institute, 940 West Valley Road, Suite 1400, Wayne, Pa. 19087-1898 USA, 2006).
# (§5) The wells of standard 96-well microdilution plates (Falcon 3918) were filled with 150 μL of 100% DMSO using the Multidrop 384. These plates were used to prepare the drug “mother plates” which provided the serial drug dilutions for the drug combination plates. The Biomek 2000 was used to transfer 150 μl of each stock solution (80×) from the wells in Column 1 of a deep well plate to the corresponding wells in Column 1 of the mother plate and to make seven 2-fold serial dilutions. Two mother plates, one for each drug, were combined to form a “checkerboard” pattern by transfer of equal volumes (using a multi-channel pipette) to the drug combination plate. Row H and Column 8 each contained serial dilutions of one of the agents alone for determination of the MIC.
# (§6) Plates were stacked 3 high, covered with a lid on the top plate, placed in plastic bags, and incubated at 35° C. for approximately 20 hours. Following incubation, the microplates were removed from the incubator and viewed from the bottom using a ScienceWare plate viewer. Prepared reading sheets were marked for the MIC of drug 1 (row H), the MIC of drug 2 (column 8) and the wells of the growth-no growth interface.
# Haemophilus influenzae = experiment: MIC, broth microdilution (Example 1); assay type: cell-based; conditions: Haemophilus influenzae, read-out: MIC
# Description: as §1, §2, §3, §4, §5, §6
# Streptococcus pneumoniae = experiment: MIC, broth microdilution (Example 1); assay type: cell-based
# Description: as §1, §2, §3, §4, §5, §6
# ESBL-producing E. coli = experiment: Susceptibility testing MIC/MBC, broth microdilution (Example 2); assay type: cell-based, Escherichia coli; conditions: for MBC / MIC: Escherichia coli; for MBC: read-out: MBC; for MIC: read-out: MIC
# Enterococcus faecalis = experiment: MIC, broth microdilution (Example 1); assay type: cell-based
# Description: as §1, §2, §3, §4, §5, §6
# Streptococcus pyogenes = experiment: MIC, broth microdilution (Example 1); assay type: cell-based
# Description: as §1, §2, §3, §4, §5, §6
# HA-MRSA = experiment: Susceptibility testing MIC/MBC, broth microdilution (Example 3); assay type: cell-based, Staphylococcus aureus; conditions: for MIC50 / MIC90 / MBC / MIC: Staphylococcus aureus; for MIC50: read-out: MIC50; for MIC90: read-out: MIC90; for MBC: read-out: MBC; for MIC: read-out: MIC
# Description: Two hundred clinical HA-MRSA isolates, harboring the SCCmecIV type, were evaluated for susceptibility testing. […] Four strains, including 1 hVISA and 1 VISA, characterized by population analysis profile and Macro Etest were selected for time-kill analysis.
# Trypose soy agar (TSA; Difco, Detroit, Mich.) was used for colony counting.
# Minimum inhibitory concentrations (MIC) and minimum bactericidal concentrations (MBC) were determined by broth microdilution for all antimicrobials, according to the Clinical and Laboratory Standards Institute (CLSI) guidelines (Clinical and Laboratory Standards Institute. 2006. Methods for Dilution Antimicrobial Susceptibility Tests for Bacteria That Grow Aerobically; Approved Standard. 7th ed. Wayne, Pa.: CLSI). MBC values were determined by plating of aliquots of 5 μL from clear wells onto TSA. All susceptibility testing were performed in duplicate.
# [1] = Staphylococcus aureus, ATCC29213, S. aureus 0100 (ATCC 29213), FIC control, read-out: MIC
# [2] = Enterococcus faecalis, ATCC29212, E. faecalis 0101 (ATCC 29212), FIC control, read-out: MIC
# [3] = Enterococcus faecalis, E. faecalis 0795 (VSE), read-out: MIC
# [4] = Enterococcus faecalis, E. faecalis 0796 (VSE), read-out: MIC
# [5] = Staphylococcus aureus, MRSA, S. aureus 0765 (MRSA), read-out: MIC
# [6] = Staphylococcus aureus, MRSA, S. aureus 2053 (MRSA), read-out: MIC
# [7] = Staphylococcus aureus, MSSA, S. aureus 0753 (MSSA), read-out: MIC
# [8] = Staphylococcus aureus, MSSA, S. aureus 2063 (MSSA), read-out: MIC
# [9] = Streptococcus pyogenes, S. pyogenes 0717, read-out: MIC
# [10] = Streptococcus pyogenes, S. pyogenes 0722, read-out: MIC
# [11] = MRSA / VISA, HA-MRSA isolate R2303 (VISA)
# [12] = MRSA, HA-MRSA isolate R3875 (hVISA)
smiles,measurement,setting,value
CC1(C)S[C@@H]2[C@H](NC(=O)[C@H](N)c3ccc(O)cc3)C(=O)N2[C@H]1C(=O)O [Amoxicillin],MIC,Staphylococcus aureus; [1],4 µg/mL
CC[C@H]1OC(=O)[C@H](C)[C@@H](O[C@H]2C[C@@](C)(OC)[C@@H](O)[C@H](C)O2)[C@H](C)[C@@H](O[C@@H]2O[C@H](C)C[C@H](N(C)C)[C@H]2O)[C@](C)(O)C[C@@H](C)CN(C)[C@H](C)[C@@H](O)[C@]1(C)O [Azithromycin],MIC,Haemophilus influenzae; H. influenzae 1224,1 µg/mL
same,MIC,Haemophilus influenzae; H. influenzae 2797 (BLNAR),1 µg/mL
same,MIC,Haemophilus influenzae; H. influenzae 2798 (BLNAR),2 µg/mL
same,MIC,Haemophilus influenzae; H. influenzae 2799 (BLNAR),0.25 µg/mL
same,MIC,Streptococcus pneumoniae; S. pneumoniae 0877 (PRSP),>32^a^ μg/mL
same,MIC,"Streptococcus pneumoniae; Streptococcus pneumoniae, PRSP, S. pneumoniae 0876 (PRSP), read-out: MIC",2 µg/mL
same,MIC,"Streptococcus pneumoniae; Streptococcus pneumoniae, PRSP, S. pneumoniae 0877 (PRSP), read-out: MIC",> 32 µg/mL
same,MIC,"Streptococcus pneumoniae; Streptococcus pneumoniae, S. pneumoniae 0866 (PSSP), read-out: MIC",0.06 µg/mL
same,MIC,"Streptococcus pneumoniae; Streptococcus pneumoniae, S. pneumoniae 0869 (PSSP), read-out: MIC",0.06 µg/mL
CO/N=C(\C(=O)N[C@@H]1C(=O)N2C(C(=O)[O-])=C(C[N+]3(C)CCCC3)CS[C@H]12)c1csc(N)n1 [Cefepime],MBC range,ESBL-producing E. coli; E. coli (10) clinical isolates,0.25 to 512 µg/mL
same,MIC range,ESBL-producing E. coli; E. coli (10) clinical isolates,0.125 to 256 µg/mL
same,MBC,ESBL-producing E. coli; E. coli isolate no. 5401,4 µg/mL
same,MIC,ESBL-producing E. coli; E. coli isolate no. 5401,4 µg/mL
same,MBC,ESBL-producing E. coli; E. coli isolate no. 5411,4 µg/mL
same,MIC,ESBL-producing E. coli; E. coli isolate no. 5411,2 µg/mL
O=C(N[C@H](CO)[C@H](O)c1ccc([N+](=O)[O-])cc1)C(Cl)Cl [Chloramphenicol],MIC,Enterococcus faecalis; [2],8 µg/mL
same,MIC,Staphylococcus aureus; [1],16 µg/mL
O=C(O)c1cn(C2CC2)c2cc(N3CCNCC3)c(F)cc2c1=O [Ciprofloxacin],MIC,"Enterococcus faecalis; E. faecalis 0101 (ATCC 29212), FIC control",1 µg/mL and 0.5 µg/mL
same,MIC,Enterococcus faecalis; [2],0.5 to 1 µg/mL
same,MIC,"Staphylococcus aureus; S. aureus 0100 (ATCC 29213), FIC control",0.50 µg/mL and 0.25 µg/mL
same,MIC,Staphylococcus aureus; [1],0.25 to 0.5 µg/mL
O=C(O)[C@H]1/C(=C/CO)O[C@@H]2CC(=O)N21 [Clavulanate],MIC,Staphylococcus aureus; [1],> 16 µg/mL
CCCCCCCCCC(=O)N[C@@H](Cc1c[nH]c2ccccc12)C(=O)N[C@H](CC(N)=O)C(=O)N[C@@H](CC(=O)O)C(=O)N[C@@H]1C(=O)NCC(=O)N[C@@H](CCCN)C(=O)N[C@@H](CC(=O)O)C(=O)N[C@H](C)C(=O)N[C@@H](CC(=O)O)C(=O)NCC(=O)N[C@H](CO)C(=O)N[C@@H]([C@H](C)CC(=O)O)C(=O)N[C@@H](CC(=O)c2ccccc2N)C(=O)O[C@@H]1C [Daptomycin],MIC,Enterococcus faecalis; [3],1 µg/mL
same,MIC,Enterococcus faecalis; [4],2 µg/mL
same,MIC,Staphylococcus aureus; [5],0.5 µg/mL
same,MIC,Staphylococcus aureus; [6],0.5 µg/mL
same,MIC,Staphylococcus aureus; [7],0.5 µg/mL
same,MIC,Staphylococcus aureus; [8],1 µg/mL
same,MIC,Streptococcus pyogenes; S. pyogenes 0717,0.06 µg/mL
same,MIC,Streptococcus pyogenes; [9],0.05 µg/mL
same,MIC,Streptococcus pyogenes; [10],0.06 µg/mL
same,% of Isolates with MBC 0.25 μg/mL,HA-MRSA; 200 HA-MRSA isolates,47.5%
same,% of Isolates with MBC […] μg/mL,HA-MRSA; 200 HA-MRSA isolates,35%
same,% of Isolates with MBC […] μg/mL,HA-MRSA; 200 HA-MRSA isolates,5%
same,% of Isolates with MBC […] μg/mL,HA-MRSA; 200 HA-MRSA isolates,2.5%
same,% of Isolates with MBC […],HA-MRSA; 200 HA-MRSA isolates,9.5%
same,% of Isolates with MBC ≧4 μg/mL,HA-MRSA; 200 HA-MRSA isolates,0.5%
same,% of Isolates with MIC 0.25 μg/mL,HA-MRSA; 200 HA-MRSA isolates,58.5%
same,% of Isolates with MIC […] μg/mL,HA-MRSA; 200 HA-MRSA isolates,20.5%
same,% of Isolates with MIC […] μg/mL,HA-MRSA; 200 HA-MRSA isolates,1%
same,% of Isolates with MIC […],HA-MRSA; 200 HA-MRSA isolates,19.5%
same,% of Isolates with MIC ≧4 μg/mL,HA-MRSA; 200 HA-MRSA isolates,0.5%
same,MBC range,HA-MRSA; 200 HA-MRSA isolates,0.125 to 4 µg/mL
same,MIC range,HA-MRSA; 200 HA-MRSA isolates,0.125 to 4 µg/mL
same,MIC50,"HA-MRSA; MRSA, 200 HA-MRSA isolates",0.25 µg/mL
same,MIC90,HA-MRSA; 200 HA-MRSA isolates,0.5 µg/mL
CC(=O)NC[C@H]1CN(c2ccc(N3CCOCC3)c(F)c2)C(=O)O1 [Linezolid],MIC,Enterococcus faecalis; [3],2 µg/mL
same,MIC,Enterococcus faecalis; [4],4 µg/mL
same,MIC,"Enterococcus faecalis; Enterococcus faecalis, VRE, E. faecalis 0847 (VRE), read-out: MIC",2 µg/mL
same,MIC,"Enterococcus faecalis; Enterococcus faecalis, VRE, E. faecalis 0849 (VRE), read-out: MIC",2 µg/mL
same,MIC,Staphylococcus aureus; [5],4 µg/mL
same,MIC,Staphylococcus aureus; [6],2 µg/mL
same,MIC,Staphylococcus aureus; [7],4 µg/mL
same,MIC,Staphylococcus aureus; [8],4 µg/mL
same,MIC,Streptococcus pyogenes; [9],1 µg/mL
same,MIC,Streptococcus pyogenes; [10],1 µg/mL
same,% of Isolates with MBC […] μg/mL,HA-MRSA; 200 HA-MRSA isolates,1.5%
same,% of Isolates with MBC […] μg/mL,HA-MRSA; 200 HA-MRSA isolates,12%
same,% of Isolates with MBC […] μg/mL,HA-MRSA; 200 HA-MRSA isolates,13.5%
same,% of Isolates with MBC ≧4 μg/mL,HA-MRSA; 200 HA-MRSA isolates,73%
same,% of Isolates with MIC 0.25 μg/mL,HA-MRSA; 200 HA-MRSA isolates,9.5%
same,% of Isolates with MIC […] μg/mL,HA-MRSA; 200 HA-MRSA isolates,16%
same,% of Isolates with MIC […] μg/mL,HA-MRSA; 200 HA-MRSA isolates,15.5%
same,% of Isolates with MIC […] μg/mL,HA-MRSA; 200 HA-MRSA isolates,47.5%
same,% of Isolates with MIC ≧4 μg/mL,HA-MRSA; 200 HA-MRSA isolates,11.5%
same,MBC range,HA-MRSA; 200 HA-MRSA isolates,0.5 to 64 µg/mL
same,MIC range,HA-MRSA; 200 HA-MRSA isolates,0.25 to 4 µg/mL
same,MIC50,"HA-MRSA; MRSA, 200 HA-MRSA isolates",2 µg/mL
same,MIC90,HA-MRSA; 200 HA-MRSA isolates,4 µg/mL
NC[C@H]1O[C@H](O[C@H]2[C@H](O)[C@@H](O[C@H]3O[C@H](CO)[C@@H](O)[C@H](N)[C@H]3O)[C@H](N)C[C@@H]2N)[C@H](N)C[C@@H]1O [Tobramycin],MBC,HA-MRSA; [11],0.5 µg/mL
same,MIC,HA-MRSA; [11],0.125 µg/mL
same,MBC,"HA-MRSA; MRSA, HA-MRSA isolate R3804",1 µg/mL
same,MIC,"HA-MRSA; MRSA, HA-MRSA isolate R3804",0.5 µg/mL
same,MBC,HA-MRSA; [12],0.5 µg/mL
same,MIC,HA-MRSA; [12],0.5 µg/mL
same,MBC,"HA-MRSA; MRSA, HA-MRSA isolate R4039",1 µg/mL
same,MIC,"HA-MRSA; MRSA, HA-MRSA isolate R4039",1 µg/mL
